Measurements reported in patent US11673910B2, “Macrolides with modified desosamine sugars and uses thereof” (Zikani Therapeutics, Inc., priority 2017, dated 2023).
≈ marks a conversion by molar mass, not a printed value.

Tests used:
Type in all cases: cell-based
[1] = tested on: P. aeruginosa strain MP-3; assay: Broth dilution MIC determination (CLSI) against P. aeruginosa strain MP-3; settings: Pseudomonas aeruginosa, MP3
Protocol: (§1) Minimum inhibitory concentrations (MICs) for macrolides described herein were determined for E. coli strain MP-4, K. pneumoniae strain MP-548, P. aeruginosa strain MP-3, A. baumannii strain MP-15, and S. aureus strain MP-12 using similar test procedures as published in US Pat. Pub. No. 2017/0305953. MIC data is represented as “+++” for values less than or equal to 4 mg/L, “++” for values of greater than or equal to 8 mg/L and less than 32 mg/L, and “+” for values of 32 mg/L or greater. ND indicates no data for a particular compound. CLSI standard procedures for broth dilution MIC determination were used.

[2] = tested on: S. aureus strain MP-12; assay: Broth dilution MIC determination (CLSI) against S. aureus strain MP-12; settings: Staphylococcus aureus, MP12, strain MP-12
Protocol: as §1

[3] = tested on: A. baumannii strain MP-15; assay: Broth dilution MIC determination (CLSI) against A. baumannii strain MP-15; settings: Acinetobacter baumannii, MP15
Protocol: as §1

[4] = tested on: K. pneumoniae strain MP-548; assay: Broth dilution MIC determination (CLSI) against K. pneumoniae strain MP-548; settings: Klebsiella pneumoniae, MP548
Protocol: as §1

[5] = tested on: E. coli strain MP-4; assay: Broth dilution MIC determination (CLSI) against E. coli strain MP-4; settings: Escherichia coli, MP4
Protocol: as §1

SMILES	MIC [1] [µg/mL]	MIC [2] [µg/mL]	MIC [3] [µg/mL]	MIC [4] [µg/mL]	MIC [5] [µg/mL]
CC[C@H]1OC(=O)[C@@]2(C)CCOC(C)(C[C@@H](C)CN(C)[C@H](C)[C@H]3NC(=O)O[C@@]31C)[C@H](O[C@@H]1OC(CN)CC(N(C)C)C1O)[C@@H](C)C2=O (stereo partly drawn) [Compound 218]	≥ 32	8 to 32 (≈ 12.2 to 48.9 µM)	≥ 32	≥ 32	8 to 32 (≈ 12.2 to 48.9 µM)
CC[C@H]1OC(=O)C(C)C(=O)[C@H](C)[C@@H](OC2OC(CN(C)C)CC(N(C)C)C2O)[C@](C)(OC)C[C@@H](C)CN(C)[C@H](C)[C@H]2NC(=O)O[C@@]21C (stereo partly drawn) [Compound 159, 3-Descladinosyl-3-oxo-6-O-methyl-11,12-dideoxy-12,11-(oxycarbonylimino)-6′-dimethylamino Azithromycin]	≥ 32	≥ 32	≥ 32	8 to 32 (≈ 11.9 to 47.7 µM)	≤ 4
CC[C@H]1OC(=O)[C@@](C)(F)C(=O)[C@H](C)[C@@H](O[C@@H]2OC(CNCc3ccn(C)n3)CC(N(C)C)C2O)[C@](C)(OC)C[C@@H](C)C(=O)[C@H](C)[C@H]2NC(=O)O[C@@]21C (stereo partly drawn) [Compound 102]	≥ 32	≤ 4	≥ 32	≥ 32	8 to 32 (≈ 10.8 to 43.3 µM)
CC[C@H]1OC(=O)C(C)C(=O)[C@H](C)[C@@H](OC2OC(CN3CC(F)C3)CC(N(C)C)C2O)[C@](C)(OC)C[C@@H](C)CN[C@H](C)[C@H]2NC(=O)O[C@@]21C (stereo partly drawn) [Compound 143, 3-Descladinosyl-3-oxo-6-O-methyl-N9a-desmethyl-11,12-dideoxy-12,11-(oxycarbonylimino)-6′-(3″-fluoroazetidin-1″-yl) Azithromycin]	≥ 32	8 to 32 (≈ 11.6 to 46.6 µM)	≥ 32	8 to 32 (≈ 11.6 to 46.6 µM)	≤ 4
CC[C@H]1OC(=O)C(C)C(=O)[C@H](C)[C@@H](OC2OC(CN3CCCC3)CC(N(C)C)C2O)[C@](C)(OC)C[C@@H](C)CN[C@H](C)[C@H]2NC(=O)O[C@@]21C (stereo partly drawn) [Compound 122, 3-Descladinosyl-3-oxo-6-O-methyl-N9a-desmethyl-11,12-dideoxy-12,11-(oxycarbonylimino)-6′-(1-pyrrolodinyl) Azithromycin]	≥ 32	≥ 32	≥ 32	8 to 32 (≈ 11.7 to 46.9 µM)	≤ 4
CC[C@H]1OC(=O)[C@@]2(C)CCOC(C)(C[C@@H](C)CN(C(=O)C(F)(F)F)[C@H](C)[C@H]3NC(=O)O[C@@]31C)[C@H](O[C@@H]1OC(C)CC(N(C)C)C1O)[C@@H](C)C2=O (stereo partly drawn) [Compound 220]	≥ 32	≥ 32	≥ 32	≥ 32	≥ 32
CC[C@H]1OC(=O)C(C)C(=O)[C@H](C)[C@@H](OC2OC(CN3CCC(C)(C)CC3)CC(N(C)C)C2O)[C@](C)(OC)C[C@@H](C)CN[C@H](C)[C@H]2NC(=O)O[C@@]21C (stereo partly drawn) [Compound 138, 3-Desdadinosyl-3-oxo-6-O-methyl-N9a-desmethyl-11,12-dideoxy-12,11-(oxycarbonylimino)-6′-(4″,4″-dimethylpiperidin-1-yl) Azithromycin]	≥ 32	≥ 32	≥ 32	≥ 32	≤ 4

Next, values leading:

MIC [1] [µg/mL]	MIC [2] [µg/mL]	MIC [3] [µg/mL]	MIC [4] [µg/mL]	MIC [5] [µg/mL]	SMILES
≥ 32	≥ 32	≥ 32	8 to 32 (≈ 11.3 to 45 µM)	≤ 4	CC[C@H]1OC(=O)C(C)C(=O)[C@H](C)[C@@H](OC2OC(CN3CCCCCC3)CC(N(C)C)C2O)[C@](C)(OC)C[C@@H](C)CN[C@H](C)[C@H]2NC(=O)O[C@@]21C (stereo partly drawn) [Compound 124, 3-Desdadinosyl-3-oxo-6-O-methyl-N9a-desmethyl-11,12-dideoxy-12,11-(oxycarbonylimino)-6′-(1-azepanyl) Azithromycin]
≥ 32	≥ 32	≥ 32	≥ 32	≤ 4	CC[C@H]1OC(=O)C(C)(C)C(=O)[C@H](C)[C@@H](O[C@@H]2O[C@H](CNC3CC3)CC(N(C)C)[C@H]2O)[C@](C)(OC)C[C@@H](C)CN[C@H](C)[C@H]2NC(=O)O[C@@]21C (stereo partly drawn) [Compound 192, 2-Methyl-3-descladinosyl-3-oxo-6-O-methy 1-N9a-desmethyl-11,12-dideoxy-12,11-(oxycarbonylimino)-6′-cylcopropylamino Azithromycin]
≥ 32	≥ 32	≥ 32	≥ 32	≥ 32	CO[C@]1(C)C[C@@H](C)CN[C@H](C)[C@H]2NC(=O)O[C@]2(C)[C@@H](C)OC(=O)C(C)C(=O)[C@H](C)[C@H]1OC1OC(CNC2CC2)CC(N(C)C)C1O (stereo partly drawn) [Compound 146, 3-Descladinosyl-3-oxo-6-O-methyl-N9a-desmethyl-11,12-dideoxy-12,11-(oxycarbonylimino)-6′-cyclopropylamino-13-methyl Azithromycin]
≥ 32	≥ 32	≥ 32	≥ 32	8 to 32 (≈ 12.4 to 49.8 µM)	CC[C@H]1OC(=O)C(C)C(=O)[C@H](C)[C@@H](OC2OC(CNC)CC(N(C)C)C2O)[C@](C)(OC)C[C@@H](C)CN[C@H](C)[C@H]2NC(=O)O[C@@]21C (stereo partly drawn) [Compound 106, 3-Descladinosyl-3-oxo-6-O-methyl-N9a-desmethyl-11,12-dideoxy-12,11-(oxycarbonylimino)-6′-methylamino Azithromycin]
≥ 32	≥ 32	≥ 32	8 to 32 (≈ 11.9 to 47.7 µM)	≤ 4	CCNC[C@@H]1CC(N(C)C)[C@@H](O)[C@H](O[C@@H]2[C@@H](C)C(=O)C(C)C(=O)O[C@H](CC)[C@@]3(C)OC(=O)N[C@@H]3[C@@H](C)N(C)C[C@H](C)C[C@@]2(C)OC)O1 (stereo partly drawn) [Compound 165, 3-Descladinosyl-3-oxo-6-O-methyl-11,12-dideoxy-12,11-(oxycarbonylimino)-6′-ethylamino Azithromycin]
≥ 32	≥ 32	≥ 32	≥ 32	≤ 4	CC[C@H]1OC(=O)C(C)C(=O)[C@H](C)[C@@H](O[C@@H]2OC(CNCc3ccc(Cl)cc3)CC(N(C)C)C2O)[C@](C)(OC)C[C@@H](C)CN[C@H](C)[C@H]2NC(=O)O[C@@]21C (stereo partly drawn) [Compound 36]
≥ 32	≥ 32	≥ 32	≥ 32	≥ 32	CC[C@H]1OC(=O)C(C)C(=O)[C@H](C)[C@@H](OC2OC(CN(C)C(C)=O)CC(N(C)C)C2O)[C@](C)(OC)C[C@@H](C)CN[C@H](C)[C@H]2NC(=O)O[C@@]21C (stereo partly drawn) [Compound 169, 3-Descladinosyl-3-oxo-6-O-methyl-N9a-desmethyl-11,12-dideoxy-12,11-(oxycarbonylimino)-6′-(N-methyl-N-acetylamino) Azithromycin]
≥ 32	≥ 32	≥ 32	≥ 32	8 to 32 (≈ 12.4 to 49.8 µM)	CC[C@H]1OC(=O)C(C)C(=O)[C@H](C)[C@@H](O[C@@H]2O[C@H](C(C)N)CC(N(C)C)[C@H]2O)[C@](C)(OC)C[C@@H](C)CN[C@H](C)[C@H]2NC(=O)O[C@@]21C (stereo partly drawn) [Compound 181, 3-Desdadinosyl-3-oxo-6-O-methyl-N9a-desmethyl-11,12-dideoxy-12,11-(oxycarbonylimino)-6′-aminoethyl Azithromycin]
